According to ChEMBL document CHEMBL1201862, “PubChem BioAssay data set” (2004):
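96-well plates; 48 h exposure; 5 concentrations. Endpoints by linear interpolation between flanking doses. Not reached: highest tested concentration assigned. GI50: concentration for 50% inhibition of growth.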 The source made the active and inactive calls. No stated cut-off is given here; in the data, active = GI50 up to about 1.1 µM and inactive = higher.

What was measured:
Test in all cases: DTP human tumour cell line panel, 48 h
[1] = test system: CAKI-1
[2] = test system: SW-620
[3] = test system: UO-31
[4] = test system: ACHN
[5] = test system: Malme-3M
[6] = test system: CCRF-CEM
[7] = test system: OVCAR-3
[8] = test system: OVCAR-5
[9] = test system: SF-295
[10] = test system: COLO 205
[11] = test system: MOLT-4
[12] = test system: LOX IMVI
[13] = test system: SF-268
[14] = test system: A498
[15] = test system: Hs-578T
[16] = test system: SN12C
[17] = test system: NCI/ADR-RES
[18] = test system: HCC 2998
[19] = test system: OVCAR-4
[20] = test system: MDA-N

## CCN(CC)CC[S+]([O-])c1c2cc(OC)ccc2nc2ccc(OC)cc12 (stereo not drawn)
[1]
  GI50: 9.75 µM (inactive)
[2]
  GI50: 3.03 µM (inactive)
[3]
  GI50: 2.25 µM (inactive)
[4]
  GI50: 2.38 µM (inactive)
[5]
  GI50: 0.865 µM (active)
[6]
  GI50: 3.14 µM (inactive)
[7]
  GI50: 3.39 µM (inactive)
[8]
  GI50: 16.6 µM (inactive)
[9]
  GI50: 21.8 µM (inactive)
[10]
  GI50: 1.88 µM (inactive)
[11]
  GI50: 2.31 µM (inactive)
[12]
  GI50: 3.23 µM (inactive)
[13]
  GI50: 7.93 µM (inactive)
[14]
  GI50: 16.3 µM (inactive)
[15]
  GI50: 3.24 µM (inactive)
[16]
  GI50: 4.49 µM (inactive)
[17]
  GI50: 19.6 µM (inactive)
[18]
  GI50: 18.3 µM (inactive)
[19]
  GI50: 14.4 µM (inactive)

## CCOC(=O)c1c(OCC)[nH]c(=O)c(C(c2ccc(F)cc2)c2c(O)c(C(=O)OCC)c(OCC)[nH]c2=O)c1O
[1]
  GI50: 18.9 µM (inactive)
[2]
  GI50: 17.3 µM (inactive)
[3]
  GI50: 12.8 µM (inactive)
[4]
  GI50: 16.3 µM (inactive)
[5]
  GI50: 8.32 µM (inactive)
[6]
  GI50: 33.1 µM (inactive)
[7]
  GI50: 15.4 µM (inactive)
[8]
  GI50: 29 µM (inactive)
[9]
  GI50: 17.7 µM (inactive)
[10]
  GI50: 25.9 µM (inactive)
[11]
  GI50: 20.1 µM (inactive)
[12]
  GI50: 16.6 µM (inactive)
[13]
  GI50: 14.6 µM (inactive)
[14]
  GI50: 11.4 µM (inactive)
[15]
  GI50: 20.8 µM (inactive)
[16]
  GI50: 14.7 µM (inactive)
[17]
  GI50: 24.1 µM (inactive)
[18]
  GI50: 18.1 µM (inactive)
[19]
  GI50: 14.6 µM (inactive)

## CCCCCCCC(CC(=O)NC(CO)C(=O)NC(CO)CC(C)C)OC(=O)CC(CCCCCCC)OC(=O)CC(CCCCCCC)OC1OC(C)C(O)C(OC2OC(C)C(O)C(OC(C)=O)C2O)C1O (stereo not drawn)
[1]
  GI50: 15.7 µM (inactive)
[2]
  GI50: 14.9 µM (inactive)
[20]
  GI50: 5.41 µM (inactive)
[3]
  GI50: 14.9 µM (inactive)
[4]
  GI50: 17.2 µM (inactive)
[5]
  GI50: 16 µM (inactive)
[6]
  GI50: 5.2 µM (inactive)
[7]
  GI50: 10.7 µM (inactive)
[8]
  GI50: 11.7 µM (inactive)
[9]
  GI50: 15.8 µM (inactive)
[10]
  GI50: 5.86 µM (inactive)
[11]
  GI50: 2.81 µM (inactive)
[13]
  GI50: 12 µM (inactive)
[14]
  GI50: 13.2 µM (inactive)
[15]
  GI50: 4.1 µM (inactive)
[16]
  GI50: 7.05 µM (inactive)
[18]
  GI50: 11.2 µM (inactive)
[19]
  GI50: 12.8 µM (inactive)

## Cc1ccc(N2CCN(CCC(=O)O)CC2)cc1
[1]
  GI50: > 100 µM (inactive)
[2]
  GI50: > 100 µM (inactive)
[3]
  GI50: > 100 µM (inactive)
[4]
  GI50: > 100 µM (inactive)
[5]
  GI50: > 100 µM (inactive)
[6]
  GI50: 52.7 µM (inactive)
[7]
  GI50: > 100 µM (inactive)
[8]
  GI50: > 100 µM (inactive)
[9]
  GI50: > 100 µM (inactive)
[10]
  GI50: > 100 µM (inactive)
[12]
  GI50: > 100 µM (inactive)
[13]
  GI50: > 100 µM (inactive)
[14]
  GI50: > 100 µM (inactive)
[15]
  GI50: > 100 µM (inactive)
[16]
  GI50: > 100 µM (inactive)
[17]
  GI50: > 100 µM (inactive)
[19]
  GI50: > 100 µM (inactive)

## COc1ccccc1/C=C\C(=O)C1COCN1 (stereo not drawn)
[1]
  GI50: 18.3 µM (inactive)
[2]
  GI50: 4.36 µM (inactive)
[3]
  GI50: 16.4 µM (inactive)
[4]
  GI50: 10.7 µM (inactive)
[5]
  GI50: 19.3 µM (inactive)
[6]
  GI50: 3.77 µM (inactive)
[7]
  GI50: 8.24 µM (inactive)
[8]
  GI50: 24.7 µM (inactive)
[9]
  GI50: 26.1 µM (inactive)
[10]
  GI50: 6.35 µM (inactive)
[11]
  GI50: 3.95 µM (inactive)
[12]
  GI50: 4.83 µM (inactive)
[13]
  GI50: 21 µM (inactive)
[15]
  GI50: 16.3 µM (inactive)
[16]
  GI50: 16.4 µM (inactive)
[17]
  GI50: 15.2 µM (inactive)
[19]
  GI50: 16.3 µM (inactive)

## O=C(O)CC(NC(=O)/C(=C/c1ccccc1O)NC(=O)c1ccccc1)C(=O)O (stereo not drawn)
[1]
  GI50: 34.7 µM (inactive)
[2]
  GI50: > 100 µM (inactive)
[20]
  GI50: > 100 µM (inactive)
[3]
  GI50: 43.4 µM (inactive)
[4]
  GI50: 40.8 µM (inactive)
[5]
  GI50: 61.7 µM (inactive)
[6]
  GI50: 33.9 µM (inactive)
[7]
  GI50: > 100 µM (inactive)
[8]
  GI50: > 100 µM (inactive)
[9]
  GI50: > 100 µM (inactive)
[10]
  GI50: > 100 µM (inactive)
[11]
  GI50: 52.4 µM (inactive)
[12]
  GI50: > 100 µM (inactive)
[14]
  GI50: 50.5 µM (inactive)
[16]
  GI50: > 100 µM (inactive)
[17]
  GI50: > 100 µM (inactive)
[18]
  GI50: > 100 µM (inactive)
[19]
  GI50: > 100 µM (inactive)

## COc1cc2c(c(OC)c1OC)C(=O)[C@H]1OC(=O)N[C@@H]21
[1]
  GI50: > 100 µM (inactive)
[2]
  GI50: > 100 µM (inactive)
[3]
  GI50: > 100 µM (inactive)
[4]
  GI50: > 100 µM (inactive)
[6]
  GI50: > 100 µM (inactive)
[7]
  GI50: > 100 µM (inactive)
[8]
  GI50: > 100 µM (inactive)
[9]
  GI50: > 100 µM (inactive)
[10]
  GI50: > 100 µM (inactive)
[11]
  GI50: > 100 µM (inactive)
[12]
  GI50: > 100 µM (inactive)
[13]
  GI50: > 100 µM (inactive)
[14]
  GI50: > 100 µM (inactive)
[15]
  GI50: > 100 µM (inactive)
[16]
  GI50: > 100 µM (inactive)
[17]
  GI50: > 100 µM (inactive)
[18]
  GI50: > 100 µM (inactive)
[19]
  GI50: > 100 µM (inactive)

## COc1cc(OC)c(/C=N\Nc2nc3ccccc3c(=O)n2-c2ccccc2)c(OC)c1
[1]
  GI50: 16 µM (inactive)
[2]
  GI50: 31 µM (inactive)
[20]
  GI50: 17.4 µM (inactive)
[3]
  GI50: > 48.8 µM (inactive)
[4]
  GI50: 18.1 µM (inactive)
[5]
  GI50: 28.1 µM (inactive)
[6]
  GI50: 14.2 µM (inactive)
[7]
  GI50: 23.6 µM (inactive)
[8]
  GI50: 43.9 µM (inactive)
[9]
  GI50: 25.6 µM (inactive)
[10]
  GI50: 45.3 µM (inactive)
[11]
  GI50: 22.9 µM (inactive)
[12]
  GI50: 23.2 µM (inactive)
[13]
  GI50: 34.9 µM (inactive)
[14]
  GI50: 11.8 µM (inactive)
[16]
  GI50: 30.7 µM (inactive)
[17]
  GI50: 19.9 µM (inactive)
[18]
  GI50: 39.6 µM (inactive)
[19]
  GI50: 28.8 µM (inactive)

## CC(=O)O[C@H]1CCC2[C@@H]3CCC4Cc5nc6c(nc5C[C@]4(C)C3CC[C@@]21C)CC1CC[C@@H]2C(CC[C@@]3(C)C2CC[C@@H]3C(C)CCCC(C)C)[C@@]1(C)C6 (stereo partly drawn)
[2]
  GI50: > 100 µM (inactive)
[20]
  GI50: > 100 µM (inactive)
[3]
  GI50: > 100 µM (inactive)
[4]
  GI50: > 100 µM (inactive)
[5]
  GI50: > 100 µM (inactive)
[6]
  GI50: > 100 µM (inactive)
[7]
  GI50: > 100 µM (inactive)
[8]
  GI50: > 100 µM (inactive)
[9]
  GI50: > 100 µM (inactive)
[10]
  GI50: > 100 µM (inactive)
[11]
  GI50: > 100 µM (inactive)
[12]
  GI50: > 100 µM (inactive)
[13]
  GI50: > 100 µM (inactive)
[15]
  GI50: > 100 µM (inactive)
[16]
  GI50: > 100 µM (inactive)
[17]
  GI50: > 100 µM (inactive)
[19]
  GI50: > 100 µM (inactive)

## CC(C)=C/C(CC(O)(C(F)(F)F)C(F)(F)F)=N\O
[2]
  GI50: > 100 µM (inactive)
[3]
  GI50: > 100 µM (inactive)
[4]
  GI50: > 100 µM (inactive)
[5]
  GI50: > 100 µM (inactive)
[6]
  GI50: > 100 µM (inactive)
[8]
  GI50: > 100 µM (inactive)
[9]
  GI50: > 100 µM (inactive)
[10]
  GI50: > 100 µM (inactive)
[11]
  GI50: > 100 µM (inactive)
[12]
  GI50: > 100 µM (inactive)
[13]
  GI50: > 100 µM (inactive)
[14]
  GI50: 50.9 µM (inactive)
[15]
  GI50: > 100 µM (inactive)
[16]
  GI50: > 100 µM (inactive)
[17]
  GI50: > 100 µM (inactive)
[18]
  GI50: > 100 µM (inactive)
[19]
  GI50: > 100 µM (inactive)

## C[C@]12CC[C@@H]3c4ccc(O)cc4CC[C@H]3[C@@H]1CC[C@@H]2OC(=O)CCC1CCCC1 [ESTRADIOL CYPIONATE]
[1]
  GI50: 19.1 µM (inactive)
[2]
  GI50: 20.9 µM (inactive)
[20]
  GI50: 6.85 µM (inactive)
[3]
  GI50: 18.4 µM (inactive)
[4]
  GI50: 23.8 µM (inactive)
[5]
  GI50: 26.9 µM (inactive)
[6]
  GI50: 17.8 µM (inactive)
[7]
  GI50: 16.4 µM (inactive)
[8]
  GI50: 26.2 µM (inactive)
[9]
  GI50: 16.7 µM (inactive)
[10]
  GI50: 19.1 µM (inactive)
[11]
  GI50: 17.8 µM (inactive)
[12]
  GI50: 18 µM (inactive)
[13]
  GI50: 21.8 µM (inactive)
[14]
  GI50: 20.3 µM (inactive)
[16]
  GI50: 16.7 µM (inactive)
[17]
  GI50: 16.5 µM (inactive)
[18]
  GI50: 19.8 µM (inactive)
[19]
  GI50: 17.5 µM (inactive)
